pIC50: −log10 of the molar value. Where a name gives a salt, the structure may show the parent alone.
Target: full-length USP7 (Homo sapiens (Human), UniProt Q93009)
Assay: Enzymatic assay to determine IC50 of USP7 inhibitors (Ubiquitin-Rhodamine 110 cleavage)
Assay type: biochemical
Conditions: 0.5 nM USP7, 0.5 μM Ubiquitin-Rhodamine 110, 45 min at 37° C.
Description: For the inhibitors disclosed herein, their potency was measured using the following method.
A 45 μl reaction volume containing full-length USP7 (0.5 nM) in 50 mM HEPES pH 7.5, 150 mM NaCl, 1 mM DTT, 1 mg/ml BSA and 0.05% Tween20 was assembled in wells of 96 well half area black flat bottom plates. Test compounds were first dissolved to 25 mM stocks in DMSO and subsequently introduced to enzyme 15 min after USP7 incubation with DTT at room temperature. The enzymatic reaction was started by adding 0.5 μM Ubiquitin-Rhodamine 110 (final concentration) and allowed to proceed for 45 min at 37° C., 250 RPM shaking before Rhodamine fluorescence (485 nm excitation/520 nm emission) was measured using Tecan Spark M10 plate reader.

Chain of full-length USP7 (Q93009 whole entry): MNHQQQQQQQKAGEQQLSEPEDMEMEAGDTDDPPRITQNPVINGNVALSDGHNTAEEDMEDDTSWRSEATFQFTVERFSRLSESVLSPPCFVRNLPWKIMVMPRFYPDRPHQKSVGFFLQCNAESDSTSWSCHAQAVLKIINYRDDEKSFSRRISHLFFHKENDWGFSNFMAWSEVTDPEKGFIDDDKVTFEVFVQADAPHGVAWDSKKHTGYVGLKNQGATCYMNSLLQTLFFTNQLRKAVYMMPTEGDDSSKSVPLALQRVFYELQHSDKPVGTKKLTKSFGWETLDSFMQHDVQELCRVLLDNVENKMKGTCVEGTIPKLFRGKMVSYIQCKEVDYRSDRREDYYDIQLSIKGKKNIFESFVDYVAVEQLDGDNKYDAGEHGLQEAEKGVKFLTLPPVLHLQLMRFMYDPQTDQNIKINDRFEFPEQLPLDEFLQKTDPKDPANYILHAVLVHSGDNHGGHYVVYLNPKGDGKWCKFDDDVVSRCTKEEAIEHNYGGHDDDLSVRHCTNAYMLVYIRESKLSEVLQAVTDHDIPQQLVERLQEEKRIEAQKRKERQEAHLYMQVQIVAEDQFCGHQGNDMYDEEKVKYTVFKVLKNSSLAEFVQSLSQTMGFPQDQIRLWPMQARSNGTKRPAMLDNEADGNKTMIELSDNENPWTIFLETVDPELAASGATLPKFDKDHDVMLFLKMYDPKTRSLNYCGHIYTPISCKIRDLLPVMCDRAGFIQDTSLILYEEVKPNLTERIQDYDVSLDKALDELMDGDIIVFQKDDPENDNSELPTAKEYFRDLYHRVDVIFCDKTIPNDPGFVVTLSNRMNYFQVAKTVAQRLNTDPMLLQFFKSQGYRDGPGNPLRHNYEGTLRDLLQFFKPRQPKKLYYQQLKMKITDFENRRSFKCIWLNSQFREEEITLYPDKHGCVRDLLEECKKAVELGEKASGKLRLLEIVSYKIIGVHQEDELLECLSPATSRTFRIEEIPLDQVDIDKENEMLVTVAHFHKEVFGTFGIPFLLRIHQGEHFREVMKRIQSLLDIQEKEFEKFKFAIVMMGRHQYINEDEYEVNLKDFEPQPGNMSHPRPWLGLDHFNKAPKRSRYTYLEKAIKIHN

Compound | pIC50
3-((7-(3-(3,3-difluoroazetidine-1-carbonyl)-4,6-dimethylpyridin-2-yl)thieno[3,2-b]pyridin-2-yl)methyl)-6,6-dimethyl-3-azabicyclo[3.1.0]hexane-2,4-dione hydrochloride [Example 85] | 5.00 to 6.00
6,6-dimethyl-3-((7-(2-methyl-3-(pyrrolidin-3-ylamino)-6-(trifluoromethyl)pyridin-4-yl)thieno[3,2-b]pyridin-2-yl)methyl)-3-azabicyclo[3.1.0]hexane-2,4-dione 2,2,2-trifluoroacetate [Example 25] | > 6.30
6,6-dimethyl-3-((7-(2-methyl-3-(pyrrolidin-3-ylmethyl)-6-(trifluoromethyl)pyridin-4-yl)thieno[3,2-b]pyridin-2-yl)methyl)-3-azabicyclo[3.1.0]hexane-2,4-dione 2,2,2-trifluoroacetate [Example 88] | > 6.30
6-(2-((6,6-dimethyl-2,4-dioxo-3-azabicyclo[3.1.0]hexan-3-yl)methyl)thieno[3,2-b]pyridin-7-yl)-4-methyl-5-((S)-2-methylpiperazine-1-carbonyl)picolinonitrile hydrochloride [Example 47] | > 6.30
Cc1cc(Cl)nc(-c2ccnc3cc(CN4C(=O)C5C(C4=O)C5(C)C)sc23)c1OC1CCNC1 (racemic) [Example 2, 3-((7-(6-chloro-4-methyl-3-(pyrrolidin-3-yloxy)pyridin-2-yl)thieno[3,2-b]pyridin-2-yl)methyl)-6,6-dimethyl-3-azabicyclo[3.1.0]hexane-2,4-dione hydrochloride] | > 6.30
Cc1cc(Cl)nc(-c2ccnc3cc(CN4C(=O)C5C(C4=O)C5(C)C)sc23)c1OC1CCCNC1 (racemic) [Example 3, 3-((7-(6-chloro-4-methyl-3-(piperidin-3-yloxy)pyridin-2-yl)thieno[3,2-b]pyridin-2-yl)methyl)-6,6-dimethyl-3-azabicyclo[3.1.0]hexane-2,4-dione hydrochloride] | > 6.30
Cc1nc(C(F)(F)F)cc(-c2ccnc3cc(CN4C(=O)C5C(C4=O)C5(C)C)sc23)c1OC1CCNC1 (racemic) [Example 21, 6,6-dimethyl-3-((7-(2-methyl-3-(pyrrolidin-3-yloxy)-6-(trifluoromethyl)pyridin-4-yl)thieno[3,2-b]pyridin-2-yl)methyl)-3-azabicyclo[3.1.0]hexane-2,4-dione 2,2,2-trifluoroacetate] | > 6.30
Cc1cc(C(F)(F)F)nc(-c2ccnc3cc(CN4C(=O)C5C(C4=O)C5(C)C)sc23)c1CC1CNCCN1 (racemic) [Example 35, 6,6-dimethyl-3-((7-(4-methyl-3-(piperazin-2-ylmethyl)-6-(trifluoromethyl)pyridin-2-yl)thieno[3,2-b]pyridin-2-yl)methyl)-3-azabicyclo[3.1.0]hexane-2,4-dione hydrochloride] | > 6.30
Cc1nc(C(F)(F)F)cc(-c2ccnc3cc(CN4C(=O)C5C(C4=O)C5(C)C)sc23)c1NC(=O)C1CCNC1 (racemic) [Example 64, N-(4-(2-((6,6-dimethyl-2,4-dioxo-3-azabicyclo[3.1.0]hexan-3-yl)methyl)thieno[3,2-b]pyridin-7-yl)-2-methyl-6-(trifluoromethyl)pyridin-3-yl)pyrrolidine-3-carboxamide 2,2,2-trifluoroacetate] | 5.00 to 6.00
Cc1nc(C(F)(F)F)cc(-c2ccnc3cc(CN4C(=O)C5C(C4=O)C5(C)C)sc23)c1NC(=O)C1CCN(C(=O)C(F)(F)F)C1 (racemic) [Example 65, N-(4-(2-((6,6-dimethyl-2,4-dioxo-3-azabicyclo[3.1.0]hexan-3-yl)methyl)thieno[3,2-b]pyridin-7-yl)-2-methyl-6-(trifluoromethyl)pyridin-3-yl)-1-(2,2,2-trifluoroacetyl)pyrrolidine-3-carboxamide 2,2,2-trifluoroacetate] | < 5.00
Cc1cc(C(F)(F)F)nc(-c2ccnc3cc(CN4C(=O)C5C(C4=O)C5(C)C)sc23)c1C(=O)N1CCC2CNCC21 (racemic) [Example 72, 6,6-dimethyl-3-((7-(4-methyl-3-(octahydropyrrolo[3,4-b]pyrrole-1-carbonyl)-6-(trifluoromethyl)pyridin-2-yl)thieno[3,2-b]pyridin-2-yl)methyl)-3-azabicyclo[3.1.0]hexane-2,4-dione dihydrochloride] | > 6.30
Cc1nc(C(F)(F)F)cc(-c2ccnc3cc(CN4C(=O)C5C(C4=O)C5(C)C)sc23)c1CC1CNCCO1 (racemic) [Example 91, 6,6-dimethyl-3-((7-(2-methyl-3-(morpholin-2-ylmethyl)-6-(trifluoromethyl)pyridin-4-yl)thieno[3,2-b]pyridin-2-yl)methyl)-3-azabicyclo[3.1.0]hexane-2,4-dione 2,2,2-trifluoroacetate] | > 6.30
Cc1cc(C(F)(F)F)nc(-c2ccnc3cc(CN4C(=O)C5C(C4=O)C5(C)C)sc23)c1CC1CNCCO1 (racemic) [Example 92, 6,6-dimethyl-3-((7-(4-methyl-3-(morpholin-2-ylmethyl)-6-(trifluoromethyl)pyridin-2-yl)thieno[3,2-b]pyridin-2-yl)methyl)-3-azabicyclo[3.1.0]hexane-2,4-dione 2,2,2-trifluoroacetate] | > 6.30
Cc1cc(C)c(NC2CCNC2)c(-c2ccnc3cc(CN4C(=O)C5C(C4=O)C5(C)C)sc23)n1 (racemic) [Example 124, 3-((7-(4,6-dimethyl-3-(pyrrolidin-3-ylamino)pyridin-2-yl)thieno[3,2-b]pyridin-2-yl)methyl)-6,6-dimethyl-3-azabicyclo[3.1.0]hexane-2,4-dione 2,2,2-trifluoroacetate] | > 6.30
Cc1nc(Cl)cc(-c2ccnc3cc(CN4C(=O)C5C(C4=O)C5(C)C)sc23)c1NC1CCNC1 (racemic) [Example 125, 3-((7-(6-chloro-2-methyl-3-(pyrrolidin-3-ylamino)pyridin-4-yl)thieno[3,2-b]pyridin-2-yl)methyl)-6,6-dimethyl-3-azabicyclo[3.1.0]hexane-2,4-dione 2,2,2-trifluoroacetate] | > 6.30
Cc1cc(Cl)nc(-c2ccnc3cc(CN4C(=O)C5C(C4=O)C5(C)C)sc23)c1NC1CCCNC1 (racemic) [Example 129, 3-((7-(6-chloro-4-methyl-3-(piperidin-3-ylamino)pyridin-2-yl)thieno[3,2-b]pyridin-2-yl)methyl)-6,6-dimethyl-3-azabicyclo[3.1.0]hexane-2,4-dione tetrahydrochloride] | > 6.30
Cc1cc(C(F)(F)F)nc(-c2ccnc3cc(CN4C(=O)C5C(C4=O)C5(C)C)sc23)c1C(=O)N1CCC(C)(N)C1 (racemic) [Example 137, 3-((7-(3-(3-amino-3-methylpyrrolidine-1-carbonyl)-4-methyl-6-(trifluoromethyl)pyridin-2-yl)thieno[3,2-b]pyridin-2-yl)methyl)-6,6-dimethyl-3-azabicyclo[3.1.0]hexane-2,4-dione trihydrochloride] | 6.00 to 6.30
Cc1cc(C(F)(F)F)nc(-c2ccnc3cc(CN4C(=O)C5C(C4=O)C5(C)C)sc23)c1C(=O)N1CCC(CN)C1 (racemic) [Example 139, 3-((7-(3-(3-(aminomethyl)pyrrolidine-1-carbonyl)-4-methyl-6-(trifluoromethyl)pyridin-2-yl)thieno[3,2-b]pyridin-2-yl)methyl)-6,6-dimethyl-3-azabicyclo[3.1.0]hexane-2,4-dione trihydrochloride] | > 6.30
Cc1cc(C(F)(F)F)nc(-c2ccnc3cc(CN4C(=O)C5C(C4=O)C5(C)C)sc23)c1C(=O)N1CCC(CNC(C)C)C1 (racemic) [Example 140, 3-((7-(3-(3-((isopropylamino)methyl)pyrrolidine-1-carbonyl)-4-methyl-6-(trifluoromethyl)pyridin-2-yl)thieno[3,2-b]pyridin-2-yl)methyl)-6,6-dimethyl-3-azabicyclo[3.1.0]hexane-2,4-dione trihydrochloride] | > 6.30
Cc1cc(C(F)(F)F)nc(-c2ccnc3cc(CN4C(=O)N(C)C5(CC5)C4=O)sc23)c1NC1CCNC1 (racemic) [Example 145, 4-methyl-6-((7-(4-methyl-3-(pyrrolidin-3-ylamino)-6-(trifluoromethyl)pyridin-2-yl)thieno[3,2-b]pyridin-2-yl)methyl)-4,6-diazaspiro[2.4]heptane-5,7-dione dihydrochloride] | > 6.30
Cc1cc(Cl)nc(-c2ccnc3cc(CN4C(=O)C5C(C4=O)C5(C)C)sc23)c1O[C@H]1CCCNC1 (single isomer, unassigned) [Example 4, hydrochloride] | > 6.30
Cc1ccnc(-c2ccnc3cc(CN4C(=O)C5C(C4=O)C5(C)C)sc23)c1C(O)[C@@H]1CNCCO1 (single isomer, unassigned) [Example 100, 2,2,2-trifluoroacetate] | 5.00 to 6.00
Cc1cc(C#N)nc(-c2ccnc3cc(CN4C(=O)C5C(C4=O)C5(C)C)sc23)c1OC1CCCNC1 (stereo not drawn) [Example 1, 6-(2-((6,6-dimethyl-2,4-dioxo-3-azabicyclo[3.1.0]hexan-3-yl)methyl)thieno[3,2-b]pyridin-7-yl)-4-methyl-5-(piperidin-3-yloxy)picolinonitrile 2,2,2-trifluoroacetate] | > 6.30
Cc1nc(C#N)cc(-c2ccnc3cc(CN4C(=O)C5C(C4=O)C5(C)C)sc23)c1C(=O)N1CCNC[C@@H]1C (stereo partly drawn) [Example 5, 4-(2-((6,6-dimethyl-2,4-dioxo-3-azabicyclo[3.1.0]hexan-3-yl)methyl)thieno[3,2-b]pyridin-7-yl)-6-methyl-5-((S)-2-methylpiperazine-1-carbonyl)picolinonitrile 2,2,2-trifluoroacetate] | > 6.30

From patent publication US12404279B2, “Deubiquitinase inhibitors and methods of use thereof” (Molecure S.A., priority 2021, dated 2025)
